Laboratory results published in paper PMC5940854, “Nitrothiophene carboxamides, a novel narrow spectrum antibacterial series: Mechanism of action and Efficacy” (Scientific Reports, 2018).
In brackets after ≈: the same amount, converted by molar mass.

Tests used:
[1] = test system: E. coli clinical isolates; experiment: MIC on panel of E. coli clinical isolates; type: cell-based
[2] = test system: E. coli ∆nfsAB & ∆acrB+nfnB; set-up: unit not given beside the values
Experimental: The inoculum used for all the experiments is derived from a single seed lot that is maintained as glycerol stocks at −80 °C and are sub cultured on LB plate for isolated colonies. Single colony of each strain is grown in M9 medium. All test compound stocks and dilutions are prepared in DMSO. Serial two-fold dilutions of compounds are prepared separately, with the concentrations ranging from 2 mg/mL to 0.015 mg/mL. To 150 µl (3–7 × 10^5 CFU/ml) of bacterial culture in 96 well microtitre plates, 3 μL compound from each of the dilutions is added to respective wells to obtain final concentrations ranging from 40 µg/mL to 0.3 µg/mL of the test compounds. Media control, culture control and appropriate reference drug controls are included. […] Growth is monitored by checking absorbance at 600 nm (A600). […] The samples from MIC and above concentrations are plated for MBC (Minimum Bactericidal Concentration). The samples are diluted 1:10 and plated on LB agar plates. […] The killing kinetics is determined by enumerating survivors at various time points following compound exposure. E. coli cells (~10^7 CFU/ml; A600 of 0.1) are treated with various concentrations (40 µg/mL to 0.3 µg/mL) of compounds in a 96-well microtitre plate. At various time intervals (0 to 8 h), 30 μl volumes of treated cultures are serially diluted and plated on LB agar plates. […] Data is expressed as the log10 CFU for each drug treatment.

[3] = biological target: T1, NfsA (Escherichia coli, UniProt P17117); experiment: Nitroreductase activity assay, NfsA; type: biochemical, E. coli; settings: 20 μM compound, 40 μM NADPH, 10 nM NfsA; slope of initial velocity
T1 construct: His-tag; made in house; host or cells: E. coli BL21(DE3), pET28a (pET-nfsA)
Method in brief: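 NADPH (40 μM) oxidation by 10 nM NfsA, or NADH (40 μM) oxidation by 70 nM NfsB, against 20 μM nitro substrate in 50 mM Tris-HCl pH 7.4, 5 mM EDTA; NfsA run at 25 °C. Fluorescence decrease (ex 340/em 485 NADPH; ex 350/em 460 NADH) read every 10 s; first-90-s slopes, blank-corrected, expressed relative to nitrofurantoin with NfsB.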

[4] = test system: wild-type E. coli CGSC#7636 (BW25113); experiment: MIC, wild-type E. coli; type: cell-based; settings: Escherichia coli, BW25113, Table S11; read-out: MIC WT
Method in brief: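 Growth inhibition was read as absorbance at 600 nm after exposing 3–7 × 10^5 CFU/ml cultures in M9 medium to final compound concentrations of 40 µg/mL to 0.3 µg/mL. For killing kinetics, ~10^7 CFU/ml cells were treated over 0 to 8 h and survivors counted.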

T1 sequence (P17117 whole entry): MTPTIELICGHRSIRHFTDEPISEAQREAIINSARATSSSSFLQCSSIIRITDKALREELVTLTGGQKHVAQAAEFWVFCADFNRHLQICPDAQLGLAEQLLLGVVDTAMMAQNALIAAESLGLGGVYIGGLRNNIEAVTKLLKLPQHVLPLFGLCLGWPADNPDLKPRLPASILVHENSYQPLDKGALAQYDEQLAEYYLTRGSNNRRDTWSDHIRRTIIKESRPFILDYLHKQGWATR

COc1cc(-c2csc(NC(=O)c3ccc([N+](=O)[O-])s3)n2)ccc1Cl [compound 20, N-(4-(4-chloro-3-methoxyphenyl)thiazol-2-yl)-5-nitrothiophene-2-carboxamide]
MIC Range ([1]; 75 E.coli clinical isolates): 0.6 to 10 mg/L
MIC50 ([1]; Escherichia coli, 75 E.coli clinical isolates, 50% clinical isolates): 5 mg/L (≈ 12.6 µM)
MIC90 ([1]; Escherichia coli, 75 E.coli clinical isolates, 90% clinical isolates): 10 mg/L (≈ 25.3 µM)
MIC ([1]; strain SEC001): 8 mg/L (≈ 20.2 µM)
MIC ([1]; strain SEC002): 8 mg/L (≈ 20.2 µM)
MIC ([1]; strain SEC003): 8 mg/L (≈ 20.2 µM)
MIC ([1]; strain SEC004): 8 mg/L (≈ 20.2 µM)
MIC ([1]; strain SEC005): 8 mg/L (≈ 20.2 µM)
MIC ([1]; strain SEC006): 8 mg/L (≈ 20.2 µM)
MIC ([1]; strain SEC007): 8 mg/L (≈ 20.2 µM)
MIC ([1]; strain SEC008): 8 mg/L (≈ 20.2 µM)
MIC ([1]; strain SEC011): 8 mg/L (≈ 20.2 µM)
MIC ([1]; strain SEC012): 2 mg/L (≈ 5.05 µM)
MIC ([1]; strain SEC013): 8 mg/L (≈ 20.2 µM)
MIC ([1]; strain SEC014): 8 mg/L (≈ 20.2 µM)
MIC ([1]; strain SEC015): 8 mg/L (≈ 20.2 µM)
MIC ([1]; strain SEC016): 2 mg/L (≈ 5.05 µM)
MIC ([1]; strain SEC017): 0.06 mg/L (≈ 0.152 µM)
MIC ([1]; strain SEC018): 1 mg/L (≈ 2.53 µM)
MIC ([1]; strain SEC019): 2 mg/L (≈ 5.05 µM)
MIC ([1]; strain SEC020): 8 mg/L (≈ 20.2 µM)
MIC ([1]; strain SEC021): 1 mg/L (≈ 2.53 µM)
MIC ([1]; strain SEC022): 4 mg/L (≈ 10.1 µM)
MIC ([1]; strain SEC023): 8 mg/L (≈ 20.2 µM)
MIC ([1]; strain SEC024): 8 mg/L (≈ 20.2 µM)
MIC ([1]; strain SEC025): 4 mg/L (≈ 10.1 µM)
MIC ([1]; strain SEC026): 8 mg/L (≈ 20.2 µM)
MIC ([1]; strain SEC028): 1 mg/L (≈ 2.53 µM)
MIC ([1]; strain SEC029): 2 mg/L (≈ 5.05 µM)
MIC ([1]; strain SEC031): 1 mg/L (≈ 2.53 µM)
MIC ([1]; strain SEC032): 8 mg/L (≈ 20.2 µM)
MIC ([1]; strain SEC033): 2 mg/L (≈ 5.05 µM)
MIC ([1]; strain SEC034): 8 mg/L (≈ 20.2 µM)
MIC ([1]; strain SEC035): 8 mg/L (≈ 20.2 µM)
MIC ([1]; strain SEC036): 8 mg/L (≈ 20.2 µM)
MIC ([1]; strain SEC037): 1 mg/L (≈ 2.53 µM)
MIC ([1]; strain SEC038): 0.25 mg/L (≈ 0.632 µM)
MIC ([1]; strain SEC039): 8 mg/L (≈ 20.2 µM)
MIC ([1]; strain SEC040): 2 mg/L (≈ 5.05 µM)
MIC ([1]; strain SEC041): 8 mg/L (≈ 20.2 µM)
MIC ([1]; strain SEC042): 8 mg/L (≈ 20.2 µM)
MIC ([1]; strain SEC043): 8 mg/L (≈ 20.2 µM)
MIC ([1]; strain SEC044): 8 mg/L (≈ 20.2 µM)
MIC ([1]; strain SEC045): 2 mg/L (≈ 5.05 µM)
MIC ([1]; strain SEC046): 8 mg/L (≈ 20.2 µM)
MIC ([1]; strain SEC047): 0.25 mg/L (≈ 0.632 µM)
MIC ([1]; strain SEC048): 8 mg/L (≈ 20.2 µM)
MIC ([1]; strain SEC049): 8 mg/L (≈ 20.2 µM)
MIC ([1]; strain SEC050): 8 mg/L (≈ 20.2 µM)
MIC ([1]; strain SEC051): 8 mg/L (≈ 20.2 µM)
MIC ([1]; strain SEC052): 1 mg/L (≈ 2.53 µM)
MIC ([1]; strain SEC053): 2 mg/L (≈ 5.05 µM)
MIC ([1]; strain SEC054): 2 mg/L (≈ 5.05 µM)
MIC ([1]; strain SEC055): 2 mg/L (≈ 5.05 µM)
MIC ([1]; strain SEC057): 8 mg/L (≈ 20.2 µM)
MIC ([1]; strain SEC058): 8 mg/L (≈ 20.2 µM)
MIC ([1]; strain SEC059): 2 mg/L (≈ 5.05 µM)
MIC ([1]; strain SEC060): 8 mg/L (≈ 20.2 µM)
MIC ([1]; strain SEC061): 4 mg/L (≈ 10.1 µM)
MIC ([1]; strain SEC062): 1 mg/L (≈ 2.53 µM)
MIC ([1]; strain SEC063): 2 mg/L (≈ 5.05 µM)
MIC ([1]; strain SEC064): 8 mg/L (≈ 20.2 µM)
MIC ([1]; strain SEC065): 2 mg/L (≈ 5.05 µM)
MIC ([1]; strain SEC067): 2 mg/L (≈ 5.05 µM)
MIC ([1]; strain SEC068): 8 mg/L (≈ 20.2 µM)
MIC ([1]; strain SEC069): 8 mg/L (≈ 20.2 µM)
MIC ([1]; strain SEC070): 8 mg/L (≈ 20.2 µM)
MIC ([1]; strain SEC071): 1 mg/L (≈ 2.53 µM)
MIC ([1]; strain SEC072): 4 mg/L (≈ 10.1 µM)
MIC ([1]; strain SEC073): 8 mg/L (≈ 20.2 µM)
MIC ([1]; strain SEC074): 8 mg/L (≈ 20.2 µM)
MIC ([1]; strain SEC075): 4 mg/L (≈ 10.1 µM)
MIC ([1]; strain SEC076): 4 mg/L (≈ 10.1 µM)
MIC ([1]; strain SEC077): 2 mg/L (≈ 5.05 µM)
MIC ([1]; strain SEC078): 4 mg/L (≈ 10.1 µM)
MIC ([1]; strain SEC079): 2 mg/L (≈ 5.05 µM)
MIC ([1]; strain SEC080): 4 mg/L (≈ 10.1 µM)
MIC ∆nfsAB & ∆acrB+nfnB [2]: 0.6
NfsA activity (rate of compound conversion) [3]: 0.61 µM/min
MIC [4]: 1.25 mg/L (≈ 3.16 µM)
